# Measured values: US20210379153A1, “COMBINATION THERAPIES COMPRISING SIRP ALPHA-BASED CHIMERIC PROTEINS” (Shattuck Labs, Inc., priority 2018, published 2021)
# Key:
# Toledo lymphoma cells = assay: Phagocytosis of Toledo lymphoma cells by human monocyte derived macrophages (flow cytometry); type: cell-based; settings: combination with rituximab
# Method: FIG. 8D: Macrophage:Toledo lymphoma co-cultures were harvested 2 hours into phagocytosis assays in the presence of rituximab ([…]), SIRPα-Fc-CD40L ([…]), or the combination of both agents. Macrophages were isolated by CD11b+ FACS, RNA was prepared, cDNA synthesized, and gene expression (IFNa1, IFNb1, CD80, and CD86) assessed by qRT-PCR. Fold change was calculated using DDCT and values obtained from the housekeeping gene ACTB, and the corresponding values from untreated samples. […] After 2 hours, co-cultures were isolated from tissue culture vessels and were stained with a fluorescently conjugated CD11b antibody to discriminate macrophages. Cells were then assessed by flow cytometry for the co-localization of fluorescent signal from both cells types. Identical assays were set up where macrophages were pre-incubated for 1 hour with 20 μg/mL of a commercially available Fc block cocktail or with 20 μg/mL of a CD40 blocking antibody or with 5 μg/mL of a calreticulin blocking peptide. FIG. 8G: RAW 264.7-Lucia ISG cells were cultured with A20 lymphoma cells in the presence of […] of mSIRPα-Fc-CD40L, recombinant Fc-mCD40L, mSIRPα-Fc, or their combination, 1 mg/mL anti-mCD20, or the combination of mSIRPα-Fc-CD40L and anti-mCD20. After 24-hours type I interferon induced luminescence was assessed using a luminometer. The maximum luminescence (RLU) from each experiment was set to 1, and all other samples were normalized accordingly. Values from repeat experiments are shown.
# In contrast, phagocytosis-stimulating activity of the combination was not impacted when macrophages were pre-treated with a CD40-blocking antibody (“CD40 Block”).
# CT26 tumor = CT26 tumor model, order of administration with anti-CTLA-4 or anti-PD-1 (Example 10); type: in vivo, mice
# CT26 tumor cells = assay: CT26 tumor model, checkpoint antibody combinations (first Example 8); type: in vivo, BALB/C mice
# Method: In FIG. 15B, the treatments included: an anti-CTLA-4 antibody (9D9), an anti-PD-1 antibody (RMP1-14), an anti-OX40 antibody (OX86), or the SIRPα(CD172a)-Fc-CD40L chimeric protein. […] In FIG. 15D, the treatments included the SIRPα(CD172a)-Fc-CD40L chimeric protein then the anti-CTLA-4 antibody. Tumor sizes were assayed every other day until the 27th day after inoculation.
# tumors = assay: In vivo tumor model, SIRPα-Fc-LIGHT with anti-PD-1 (Example 15); design: species or system mice; settings: combination with anti-PD-1 antibody
# Method: The in vivo ability of combinations of the SIRPα-Fc-LIGHT chimeric protein with anti-PD-1 antibodies to target and treat tumors was determined. (FIG. 26A and FIG. 26B) FIG. 26C and FIG. 26D include data relevant to the graphs of FIG. 26A and FIG. 26B.
# [1] = system: HCC827 (high EGFR-expressing lung cancer cell line); assay: Macrophage engulfment of HCC827 cells; type: cell-based, human; settings: combination with anti-EGFR antibody (cetuximab); vs low EGFR-expressing tumor cells
# CT26 tumors = assay: Syngeneic CT26 colon tumor model vs CD40 agonist and CD47 blocking antibodies (Example 11); type: in vivo, mice
# Text: Mice were inoculated with CT26 tumors on day 0 and treated at a later starting date than FIG. 20A with mSIRPα-Fc-CD40L ARC on days 7, 9, and 11. […] In FIG. 20D and FIG. 20E, BALB/C mice were inoculated with WEHI3 tumors (FIG. 20D) or A20 tumors (FIG. 20E) subcutaneously on the rear flank, and then treated via IP injection with anti-CD20 or mSIRPα-Fc-CD40L on days 7, 9, and 11 (WEHI3) or days 10, 12, and 14 (A20); when tumors were established and reached approximately 57-60 mm^3. A cohort of mice were pre-treated with an interferon alpha receptor 1 (IFNAR1) blocking antibody ([…] by IP injection) on days −1, 1, and 10 (WEHI3) or on days −1, 1, and 13 (A20). […] Samples were normalized to untreated animals.
# Implanted CT26 tumors were allowed to grow to […] before treatment was initiated with a fixed regimen of two doses of either a CD40 agonist antibody (clone FGK4.5), a CD47 blocking antibody (clone MIAP301), a combination of the two antibodies, or the murine SIRPα-Fc-CD40L chimeric protein.
# splenic dendritic cells = assay: In vivo splenic dendritic cell activation; design: species or system mice; settings: mouse
# Method: For each panel, the samples are (left to right): untreated, sheep RBCs, αCD47 (MIAP301), αSIRPα (P84), mSIRPα-Fc-CD40L, mSIRPα-Fc-CD40L (24 Hrs), and αCD47 (MIAP301) (24 hrs). FIG. 9B is a quantitation of in vivo dendritic cell activation corresponding to FIG. 9A. Shown is the absolute percent of CD4+ and CD8+ dendritic cells; also gated on CD11c and DC1R2. In FIG. 9B, for each panel, the samples are (left to right): untreated, sheep RBCs, αCD47 (MIAP301), αSIRPα (P84), SIRPα-Fc-CD40L (150 μg), SIRPα-Fc-CD40L (300 μg), SIRPα-Fc-CD40L (300 μg) (24 Hrs), and αCD47 (MIAP301) (24 hrs).
# An in vivo assay to examine SIRPα/CD47 function in mice was describe in Yi et al., “Splenic Dendritic Cells Survey Red Blood Cells for Missing Self-CD47 to Trigger Adaptive Immune Responses. Immunity. 2015; 43(4):764-75) (the contents of which is incorporated by reference in its entirety). This assay detects the activation status of splenic dendritic cells in response to SIRPα/CD47 inhibitors or to infused sheep red blood cells (RBC).
# After 6 or 24 hours, mice were euthanized and their spleens excised, dissociated, and assessed by flow cytometry for populations of activated CD4+ dendritic cells (DCs) (FIG. 9A, left panel) or CD8+ dendritic cells (FIG. 9A, right panel); both populations of dendritic cells were also positive for MHC II (I-Ab), CD11c, and DC1R2.
# [2] = system: K562 (low EGFR-expressing CML cell line); assay: Macrophage engulfment of K562 cells; type: cell-based, human
# [3] = molecular target: recombinant hCD47 and recombinant hCD40 (Homo sapiens, UniProt P25942+Q08722); assay: Functional dual ELISA (hCD40 capture, hCD47-His detection); type: binding
substance,measurement,setting,value
SIRPα-Fc-CD40L: generic name of the SIRPαECD-Fc-CD40LECD chimeric protein; human or murine version according to the experiment,phagocytosis-stimulating activity,Toledo lymphoma cells; CALR Block (calreticulin blocking peptide),unable to reduce
same,phagocytosis-stimulating activity,Toledo lymphoma cells; CD40 Block,not impacted
same,phagocytosis-stimulating activity,Toledo lymphoma cells; Fc Block,partially inhibited
same,phagocytosis-stimulating activity,Toledo lymphoma cells; calreticulin blocking peptide and Fc receptor block together,greatly reduced
same,"treatment outcome (tumor size, survival)",CT26 tumor; anti-CTLA-4 antibody administered before the chimeric protein,greatest treatment outcome
same,"treatment outcome (tumor size, survival)",CT26 tumor; anti-PD-1 antibody administered with the chimeric protein,greatest treatment outcome
same,treatment outcome / tumor control,CT26 tumor; chimeric protein administered before or after the anti-PD-1 antibody,less great treatment outcome
same,treatment outcome / tumor control,CT26 tumor; chimeric protein administered before the anti-CTLA-4 antibody,less great treatment outcome
same,improvement in tumor volume,CT26 tumor cells; chimeric protein administered after the anti-CTLA-4 antibody,most significant improvement
same,tumor volume,CT26 tumor cells; combination with anti-CTLA-4 antibody,reduced tumor volume
same,rejection of primary tumor,tumors,able to reject primary tumor
same,macrophage engulfment of tumor cells,[1],more effective
same,proportion of AH1-tetramer positive CD8+ T cells in tumor and spleen,CT26 tumors; 13 days following tumor inoculation,increase in the proportion
same,therapeutic benefit with CD4 depletion,CT26 tumors; antibody-mediated depletion of CD4+ cells,partially required
same,therapeutic benefit with CD8 depletion,CT26 tumors; antibody-mediated depletion of CD8+ cells,completely eliminated the therapeutic benefit
same,proportion of overall splenic DCs vs antibody treated groups,splenic dendritic cells,higher proportion of overall splenic DCs
same,phagocytic activity,[2]; combination with cetuximab,no phagocytic activity
same,phagocytic activity,[2]; monotherapy,no phagocytic activity
same,simultaneous binding of SIRPα-domain to hCD47 and CD40L-domain to hCD40,[3],simultaneous binding
